Test results as given in ChEMBL document CHEMBL1153224, “Fluorinated piperidine acetic acids as gamma-secretase modulators” (Bioorg Med Chem Lett, 2010).
pEC50, pIC50: −log10 of the molar value.

What was measured:
Gamma-secretase [1] = assay: Inhibition of gamma secretase in human SHSY5Y cells expressing wild-type APP assessed as inhibition of intracellular amyloid beta-42 by electrochemiluminescent assay; assay type: cell-based; settings: sh-sy5y
Plasma = assay: Reduction in amyloid beta 42 level in rat plasma after 7 hrs; assay type: functional, cell-free
[2] = Plasma clearance in rat at 1 mg/kg, iv and 2 mg/kg, po; assay type: ADME, organism-based
Gamma-secretase [3] = assay: Inhibition of gamma secretase in human SHSY5Y cells expressing wild-type APP assessed as inhibition of intracellular amyloid beta-40 by electrochemiluminescent assay; assay type: cell-based; settings: sh-sy5y
Brain [4] = assay: Reduction in amyloid beta 42 level in rat brain after 7 hrs; assay type: functional, tissue-based
[5] = (§1) Drug level in APP-YAC transgenic mouse brain at 10 mg/kg, po after 7 hrs; assay type: ADME, organism-based; parameters: dose 10 mg/kg, route oral; settings: APP-YAC transgenic, brain, read-out: Drug uptake
[6] = (§2) Plasma concentration in APP-YAC transgenic mouse at 10 mg/kg, po after 7 hrs; assay type: ADME, organism-based; parameters: dose 10 mg/kg, route oral; settings: APP-YAC transgenic, plasma
[7] = AUC (0 to 24 hrs) in rat at 250 mg/kg, po after 7 days; assay type: ADME, organism-based; parameters: time < 24 hr, dose 250 mg/kg, route oral; settings: plasma
Rattus norvegicus [8] = assay: Toxicity in rat assessed as notch -related activity at 250 mg/kg, after 7 days; assay type: organism-based; parameters: dose 250 mg/kg; settings: in vivo, 168 h
Rattus norvegicus [9] = species on record: Rattus norvegicus; assay: Reduction in amyloid beta 42 level in rat after 7 hrs; assay type: functional, organism-based
Brain [10] = assay: Reduction in amyloid beta 42 level in APP-YAC transgenic mouse brain at 20 mg/kg, po after 7 hrs; assay type: functional; parameters: scale not given: the % may be the effect or the level left
Rattus norvegicus [11] = assay: (§3) Oral bioavailability in rat at 2 mg/kg; assay type: ADME, organism-based; settings: in vivo
[12] = Volume of distribution at steady state in rat at 1 mg/kg, iv and 2 mg/kg, po; assay type: ADME, organism-based; settings: in vivo, read-out: Vdss
[13] = Half life in rat at 1 mg/kg, iv and 2 mg/kg, po; assay type: ADME, organism-based; settings: in vivo
Mus musculus [14] = assay: as §1; assay type: ADME, organism-based; parameters: dose 10 mg/kg, route oral; settings: in vivo, 7 h
Mus musculus [15] = assay: as §2; assay type: ADME, organism-based; parameters: dose 10 mg/kg, route oral; settings: in vivo, 7 h
[16] = as §3; assay type: ADME, organism-based; settings: in vivo

| pIC50 (Gamma-secretase [1]) | pIC50 (Gamma-secretase [3]) | Structure (SMILES) | other results |
| --- | --- | --- | --- |
| 6.22 | < 5.00 | CC(C)(C)CCC(CCC(F)(F)F)N1CCC(F)(F)[C@H](CC(=O)O)[C@H]1c1ccc(C(F)(F)F)cc1 (some centres not stated) | pEC50 (Plasma): 5.43; clearance [2]: 3.8 mL/min/kg; pEC50 (Brain [4]): 6.00; concentration at 7 h [5]: 580 nM; concentration at 7 h [6]: 1100 nM; AUC at 24 h [7]: 2100 µM·h; Activity (Rattus norvegicus [8]): Non-toxic; IC50 (Rattus norvegicus [9]): Dose-dependent effect; ED50 (Rattus norvegicus [9]; Rattus norvegicus, 7 h): 5 mg/kg; Activity (Brain [10]): -84%; F (Rattus norvegicus [11]): 160%; Vd [12]: 1.9 L/kg; half-life [13]: 5.1 h |
| 6.10 | < 5.00 | CC(C)(C)C#CC(CCC(F)(F)F)N1CCC(F)(F)[C@H](CC(=O)O)[C@H]1c1ccc(C(F)(F)F)cc1 (mixture of isomers) |  |
| 5.85 | < 5.00 | CC(C)(C)CCC(CCC(F)(F)F)N1CCC(F)(F)[C@H](CC(=O)O)[C@H]1c1ccc(C(F)(F)F)cc1 (single isomer, unassigned; enantiomer 1) |  |
| 6.41 | < 5.00 | CC(C)(C)C#CC(CCC(F)(F)F)N1CCC(F)(F)[C@H](CC(=O)O)[C@H]1c1ccc(C(F)(F)F)cc1 (single isomer, unassigned; enantiomer 2) |  |
| 6.15 | < 5.00 | CC(C)CC[C@H](c1ccc(C(F)(F)F)cc1)N1CC[C@@H](CC(=O)O)C(F)(F)[C@H]1c1ccc(C(F)(F)F)cc1 |  |
| < 5.00 | < 5.00 | CN1CCC(F)(F)[C@H](CC(=O)O)[C@H]1c1ccc(C(F)(F)F)cc1 |  |
| 6.19 | < 5.00 | C[Si](C)(C)CCC(CCC(F)(F)F)N1CCC(F)(F)[C@H](CC(=O)O)[C@H]1c1ccc(C(F)(F)F)cc1 (single isomer, unassigned; enantiomer 2) |  |
| 6.06 | < 5.00 | CC(C)CCC(CCC(C)C)N1CCC(F)(F)[C@H](CC(=O)O)[C@H]1c1ccc(C(F)(F)F)cc1 |  |
| 6.31 | < 5.00 | CC(C)(C)CC[C@H](CCC(F)(F)F)N1CC[C@@H](CC(=O)O)C(F)(F)[C@H]1c1ccc(C(F)(F)F)cc1 |  |
| 5.82 | < 5.00 | CC(C)(C)C#CC(CCC(F)(F)F)N1CCC(F)(F)[C@H](CC(=O)O)[C@H]1c1ccc(C(F)(F)F)cc1 (some centres not stated) |  |

| Structure (SMILES) | pIC50 (Gamma-secretase [1]) | pIC50 (Gamma-secretase [3]) | other results |
| --- | --- | --- | --- |
| C[Si](C)(C)CC[C@H](CCC(F)(F)F)N1CC[C@@H](CC(=O)O)C(F)(F)[C@H]1c1ccc(C(F)(F)F)cc1 | 6.64 | < 5.00 | clearance [2]: 9.1 mL/min/kg; Drug uptake (Mus musculus [14]): Not Active; Cp (Mus musculus [15]): Not Active; Activity (Brain [10]): -64%; bioavailability [16]: 20%; Vd [12]: 5.1 L/kg; half-life [13]: 6.4 h |
